# Data from ChEMBL document CHEMBL4706771, “Discovery of Orally Bioavailable Ligand Efficient Quinazolindiones as Potent and Selective Tankyrases Inhibitors” (ACS Med Chem Lett, 2021).
# Activity calls are given as the source filed them. No cut-off for these calls is given here.
# How the values were obtained:
# [1] = Half life in C57 mouse at 3 mg/kg, po or 1 mg/kg, iv; assay type: ADME, organism-based; details: in vivo
# [2] = Mutagenicity in Escherichia coli WP2uvrA in presence of S9 fraction by ames test; assay type: toxicity, subcellular
# [3] = test system: NCI-H292; assay: Antitumor activity against human NCI-H292 cells xenografted in BALB/c mouse assessed as maximal potency administered orally for 14 days and measured on day 14; assay type: functional; details: time 14 day
# [4] = Toxicity in Wistar Han rat assessed as decrease in skin elasticity at >= 100 mg/kg, po administered for 7 days and measured on day 7; assay type: organism-based; details: in vivo, 168 h, time 7 day
# [5] = Clearance in Beagle dog at 2 mg/kg, po or 1 mg/kg, iv; assay type: ADME, organism-based, Canis lupus familiaris; details: in vivo
# [6] = Toxicity in Wistar Han rat assessed as reduction in body weight at 10 mg/kg, po administered for 7 days and measured on day 7; assay type: organism-based; design: scale not given: the % may be the effect or the level left; details: in vivo, 168 h, time 7 day
# [7] = molecular target: Cytochrome P450 3A4 (Homo sapiens, UniProt P08684); assay: Inhibition of CYP3A4 (unknown origin); assay type: ADME
# [8] = test system: NCI-H292; assay: Antitumor activity against human NCI-H292 cells xenografted in BALB/c mouse assessed as reduction in tumor volume at 10 to 30 mg/kg, po administered for 14 days and measured on day 14; assay type: functional, organism-based; details: dose 10-30 mg/kg, time 14.0 day
# [9] = Mutagenicity in Salmonella typhimurium TA98 by ames test; assay type: toxicity; details: salmonella enterica subsp. enterica serovar typhimurium
# [10] = Toxicity in Wistar Han rat assessed as closed eyes at >= 100 mg/kg, po administered for 7 days and measured on day 7; assay type: organism-based; details: in vivo, 168 h, time 7 day
# [11] = Toxicity in Wistar Han rat assessed as abnormal soft fecal consistency at >= 100 mg/kg, po administered for 7 days and measured on day 7; assay type: organism-based; details: in vivo, 168 h, time 7 day
# [12] = Mutagenicity in Salmonella typhimurium TA100 by ames test; assay type: toxicity; details: salmonella enterica subsp. enterica serovar typhimurium
# [13] = Toxicity in Wistar Han rat assessed as abnormal watery fecal consistency at >= 100 mg/kg, po administered for 7 days and measured on day 7; assay type: organism-based; details: in vivo, 168 h, time 7 day
# [14] = Mutagenicity in Salmonella typhimurium TA1535 by ames test; assay type: toxicity; details: salmonella enterica subsp. enterica serovar typhimurium
# [15] = Toxicity in Wistar Han rat assessed as tolerability at 10 mg/kg, po administered for 7 days and measured on day 7; assay type: organism-based; details: in vivo, 168 h, time 7 day
# [16] = Clearance in C57 mouse at 3 mg/kg, po or 1 mg/kg, iv; assay type: ADME, organism-based; details: in vivo
# [17] = Toxicity in Wistar Han rat assessed as tolerability at >= 100 mg/kg, po administered for 7 days and measured on day 7; assay type: organism-based; details: in vivo, 168 h, time 7 day
# [18] = Volume of distribution in Beagle dog at 2 mg/kg, po or 1 mg/kg, iv; assay type: ADME, organism-based, Canis lupus familiaris; details: in vivo
# [19] = Toxicity in Wistar Han rat assessed as irregular breathing at >= 100 mg/kg, po administered for 7 days and measured on day 7; assay type: organism-based; details: in vivo, 168 h, time 7 day
# [20] = Dose normalised AUC in Beagle dog at 2 mg/kg, po; assay type: ADME, organism-based, Canis lupus familiaris; details: in vivo
# [21] = molecular target: T1, Poly [ADP-ribose] polymerase tankyrase-1 (Homo sapiens, UniProt O95271); assay: Inhibition of human TNKS1 incubated for 1 to 2 hrs by fluorescence polarization assay
# T1 sequence (O95271 whole entry): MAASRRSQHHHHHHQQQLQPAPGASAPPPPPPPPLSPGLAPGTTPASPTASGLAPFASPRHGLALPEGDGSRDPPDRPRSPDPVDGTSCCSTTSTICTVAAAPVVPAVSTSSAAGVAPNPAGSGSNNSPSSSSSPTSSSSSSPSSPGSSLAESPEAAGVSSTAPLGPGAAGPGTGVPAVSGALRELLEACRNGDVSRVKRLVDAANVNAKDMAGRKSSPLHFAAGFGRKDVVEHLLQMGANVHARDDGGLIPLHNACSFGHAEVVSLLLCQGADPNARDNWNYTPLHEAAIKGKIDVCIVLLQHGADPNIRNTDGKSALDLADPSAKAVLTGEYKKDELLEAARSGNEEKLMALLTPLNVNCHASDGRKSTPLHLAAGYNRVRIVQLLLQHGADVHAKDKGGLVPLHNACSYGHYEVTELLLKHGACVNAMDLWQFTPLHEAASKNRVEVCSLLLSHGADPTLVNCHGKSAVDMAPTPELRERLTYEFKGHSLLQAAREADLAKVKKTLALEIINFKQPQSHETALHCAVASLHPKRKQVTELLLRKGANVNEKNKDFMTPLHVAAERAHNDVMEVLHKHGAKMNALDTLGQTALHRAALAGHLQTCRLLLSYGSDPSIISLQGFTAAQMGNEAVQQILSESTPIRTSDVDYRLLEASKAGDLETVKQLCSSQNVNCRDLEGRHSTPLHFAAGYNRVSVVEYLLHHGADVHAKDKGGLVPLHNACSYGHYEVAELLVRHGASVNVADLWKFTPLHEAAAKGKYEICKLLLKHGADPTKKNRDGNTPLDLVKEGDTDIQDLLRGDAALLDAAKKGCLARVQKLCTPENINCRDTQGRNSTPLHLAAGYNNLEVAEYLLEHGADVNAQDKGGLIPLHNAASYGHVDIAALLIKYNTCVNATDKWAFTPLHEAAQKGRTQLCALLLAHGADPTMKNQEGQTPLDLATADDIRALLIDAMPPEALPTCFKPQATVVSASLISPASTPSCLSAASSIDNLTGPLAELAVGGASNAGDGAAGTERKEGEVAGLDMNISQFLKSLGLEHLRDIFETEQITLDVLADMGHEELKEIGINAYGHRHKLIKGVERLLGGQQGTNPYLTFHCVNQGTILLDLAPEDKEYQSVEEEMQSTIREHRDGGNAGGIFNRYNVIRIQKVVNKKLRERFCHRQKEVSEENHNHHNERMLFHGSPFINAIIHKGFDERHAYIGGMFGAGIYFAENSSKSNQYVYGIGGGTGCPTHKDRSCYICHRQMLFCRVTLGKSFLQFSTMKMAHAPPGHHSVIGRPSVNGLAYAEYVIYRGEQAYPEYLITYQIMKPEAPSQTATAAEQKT
# [22] = Clearance in Sprague-Dawley rat at 8.6 mg/kg, po or 0.5 mg/kg, iv; assay type: ADME, organism-based; details: in vivo
# [23] = Inhibition of Wnt/beta-catenin (unknown origin) expressed in human HEK293 cells expressing MSRII transfected with DNA-LF2K incubated for 24 hrs by luciferase reporter gene assay; details: HEK293, 24 h
# [24] = Toxicity in BALB/c mouse xenografted with human NCI-H292 cells assessed as tolerability at 10 to 30 mg/kg, po for 14 days and measured on day 14; assay type: organism-based; details: in vivo, 336 h, dose 10-30 mg/kg, time 14 day
# [25] = Oral bioavailability in C57 mouse at 3 mg/kg; assay type: ADME, organism-based; details: in vivo
# [26] = Volume of distribution in Sprague-Dawley rat at 8.6 mg/kg, po or 0.5 mg/kg, iv; assay type: ADME, organism-based; details: in vivo
# [27] = molecular target: Cytochrome P450 2D6 (Homo sapiens, UniProt P10635); assay: Inhibition of CYP2D6 (unknown origin); assay type: ADME
# [28] = Half life in Sprague-Dawley rat at 8.6 mg/kg, po or 0.5 mg/kg, iv; assay type: ADME, organism-based; details: in vivo
# Chain of Cytochrome P450 2D6 (P10635 whole entry): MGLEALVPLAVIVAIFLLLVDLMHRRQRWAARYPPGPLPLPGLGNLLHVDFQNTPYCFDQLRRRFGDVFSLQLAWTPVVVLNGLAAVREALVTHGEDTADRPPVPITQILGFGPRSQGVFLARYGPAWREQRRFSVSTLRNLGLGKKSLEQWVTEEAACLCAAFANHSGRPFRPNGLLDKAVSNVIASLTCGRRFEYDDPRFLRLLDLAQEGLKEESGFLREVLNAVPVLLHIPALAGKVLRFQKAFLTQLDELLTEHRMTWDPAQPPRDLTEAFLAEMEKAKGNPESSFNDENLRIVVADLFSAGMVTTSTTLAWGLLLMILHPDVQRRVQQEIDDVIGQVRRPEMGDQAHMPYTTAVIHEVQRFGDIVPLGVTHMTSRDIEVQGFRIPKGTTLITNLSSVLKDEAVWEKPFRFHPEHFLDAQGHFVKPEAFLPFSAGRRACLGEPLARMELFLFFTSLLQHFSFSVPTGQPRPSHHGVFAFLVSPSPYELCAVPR
# Chain of Cytochrome P450 3A4 (P08684 whole entry): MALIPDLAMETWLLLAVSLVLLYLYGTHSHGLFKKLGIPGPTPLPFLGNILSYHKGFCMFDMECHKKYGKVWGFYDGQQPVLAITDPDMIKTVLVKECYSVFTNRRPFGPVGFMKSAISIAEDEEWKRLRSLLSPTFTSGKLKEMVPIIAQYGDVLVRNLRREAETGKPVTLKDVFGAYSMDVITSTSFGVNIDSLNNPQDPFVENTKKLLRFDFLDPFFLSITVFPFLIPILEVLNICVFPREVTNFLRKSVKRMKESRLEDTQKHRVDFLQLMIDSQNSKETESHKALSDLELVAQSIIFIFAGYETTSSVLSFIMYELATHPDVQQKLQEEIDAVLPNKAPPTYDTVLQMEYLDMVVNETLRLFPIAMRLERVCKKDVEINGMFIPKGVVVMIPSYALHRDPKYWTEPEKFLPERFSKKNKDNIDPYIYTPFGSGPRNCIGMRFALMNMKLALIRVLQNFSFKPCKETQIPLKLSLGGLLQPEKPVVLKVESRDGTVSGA
smiles,measurement,setting,value
Cc1cccc2c1c(=O)n(C[C@H]1CC[C@H](C(=O)O)CC1)c(=O)n2Cc1cccc(C(F)(F)F)c1C#N,half-life,[1],10.9 h
same,Activity,[2],Non-Toxic
same,ECmax,[3],10 mg/kg
same,Activity,[4],Toxic
same,clearance,[5],3.15 mL/min/kg
same,Activity,[6],8%
same,IC50,[7],> 100000 nM
same,Activity,[8],Active
same,Activity,[9],Non-Toxic
same,Activity,[10],Toxic
same,Activity,[11],Toxic
same,Activity,[12],Non-Toxic
same,Activity,[13],Toxic
same,Activity,[14],Non-Toxic
same,Activity,[15],Non-Toxic
same,clearance,[16],1.44 mL/min/kg
same,Activity,[17],Toxic
same,Vd,[18],2.12 L/kg
same,Activity,[19],Toxic
same,AUC/dose,[20],2937 ng·h/mL
same,IC50,[21],4 nM
same,clearance,[22],3.48 mL/min/kg
same,IC50,[23],20 nM
same,Activity,[24],Non-Toxic
same,bioavailability,[25],37.1%
same,Vd,[26],0.97 L/kg
same,IC50,[27],> 100000 nM
same,half-life,[28],3.89 h
